Results: patent US20150209379A1, “TREATMENT OF PROSTATE CANCER AND HEMATOLOGIC NEOPLASMS” (THOMAS JEFFERSON UNIVERSITY, priority 2012, published 2015)

Key:
[1] = biological target: T1, Stat5a (Homo sapiens, UniProt P42229); assay: Stat5a transcriptional activity, beta-casein promoter luciferase reporter gene assay in PC-3 cells; assay type: cell-based; parameters: expressed in transfected cells; host or cells: PC-3 human prostate cancer cells; details: 1 hour pretreatment, then 10 nM hPrl 16 hours
T1 sequence (P42229 1-794): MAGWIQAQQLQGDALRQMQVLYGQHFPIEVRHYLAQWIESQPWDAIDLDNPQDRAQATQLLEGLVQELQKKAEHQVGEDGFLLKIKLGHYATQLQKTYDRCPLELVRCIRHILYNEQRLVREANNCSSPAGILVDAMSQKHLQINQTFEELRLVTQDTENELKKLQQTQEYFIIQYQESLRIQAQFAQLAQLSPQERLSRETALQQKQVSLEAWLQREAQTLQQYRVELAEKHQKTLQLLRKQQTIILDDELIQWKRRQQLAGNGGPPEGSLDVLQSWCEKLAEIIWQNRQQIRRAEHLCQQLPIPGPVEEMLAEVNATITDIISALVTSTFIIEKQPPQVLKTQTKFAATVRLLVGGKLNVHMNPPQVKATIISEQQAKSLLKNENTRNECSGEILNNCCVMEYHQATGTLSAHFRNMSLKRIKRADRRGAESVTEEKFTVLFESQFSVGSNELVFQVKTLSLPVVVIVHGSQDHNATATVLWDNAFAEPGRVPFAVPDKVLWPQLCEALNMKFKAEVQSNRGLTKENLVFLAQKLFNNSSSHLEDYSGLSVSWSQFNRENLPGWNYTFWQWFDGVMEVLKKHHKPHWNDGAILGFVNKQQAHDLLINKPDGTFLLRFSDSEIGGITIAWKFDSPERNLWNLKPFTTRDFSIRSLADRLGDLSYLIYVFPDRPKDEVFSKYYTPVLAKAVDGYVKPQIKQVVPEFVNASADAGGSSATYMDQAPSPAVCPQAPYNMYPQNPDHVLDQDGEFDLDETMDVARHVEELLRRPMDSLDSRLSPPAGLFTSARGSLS
Experimental: Cells of the human prostate cell line PC-3 were plated into 96-well plate at the density of 2×10^5 per well. After 24 hours of plating, cells were transiently co-transfected using FuGENE6 (Roche) with 0.25 μg of each of pStat5a, pPrlR (prolactin receptor) plasmids, 0.5 μg of pBeta-casein-luc and 0.025 μg of pRL-TK (Renilla luciferase) plasmids as an internal control. After another 24 hours of transfection, the cells were starved in serum-free medium for 8 hours, pretreated with (2R,3R,4S,5R)-2-(6-(3,4-dihydroisoquinolin-2(1H)-yl)-9H-purin-9-yl)-5-(hydroxymethyl)tetrahydrofuran-3,4-diol (Compound 1) or (2R,3S,4R,5R)-2-(hydroxymethyl)-5-(6-(2-phenylhydrazinyl)-9H-purin-9-yl)tetrahydrofuran-3,4-diol (Compound 2), for 1 hour, and then stimulated with 10 nM human prolactin (hPrl) in the serum-free medium for additional 16 hours. The lysates were assayed for firefly and Renilla luciferase activities using the Dual-Luciferase reporter assay system (Promega). The firefly luciferase activity was normalized to the Renilla luciferase activity of the same sample, and the mean was calculated from the parallels. From the mean values of each independent run, the overall mean and its standard deviation (S.D.) were calculated.
(§1) Cells of the human prostate cell line PC-3 were plated into 96-well plate at the density of 2×10^5 per well. […] The firefly luciferase activity was normalized to the Renilla luciferase activity of the same sample, and the mean was calculated from the parallels. From the mean values of each independent run, the overall mean and its standard deviation (S.D.) were calculated.
as §1

[2] = system: CWR22Rv1 prostate cancer cells; assay: Cell viability, MTS assay, CWR22Rv1 prostate cancer cells; assay type: cell-based, human; details: CWR22Rv1, 72 h, 3.1, 6.3, 12.5, 25 and 50 μM, vs control compound C5
Experimental: Exponentially growing CWR22Rvl prostate cancer cells were treated with Compound 1, Compound 2 or the control compound C5 for 72 h at 3.1, 6.3. 12.5, 25 and 50 μM concentrations. The cell viability was assessed by MTS (3-(4,5-dimethylthiazolyl-2)-2,5-diphenyl-tetrazolium bromide) metabolic activity assay (CellTiter 96® AQueous Assay kit).
Exponentially growing CWR22Rv1 prostate cancer cells, K562 leukemia cells and imatinib-sensitive KCL22S and imatinib-resistant KCL22R chronic myeloid leukemia cells were treated with NBPP or the control compound C5 for 72 h at 3.1, 6.3. 12.5, 25 and 50 μM concentrations. The cell viability was assessed by MTS (3-(4,5-dimethylthiazolyl-2)-2,5-diphenyl-tetrazolium bromide) metabolic activity assay (CellTiter 96® AQueous Assay kit).
Exponentially growing CWR22Rvl prostate cancer cells were treated with N6BA or the control compound C5 for 72 h at 3.1, 6.3. 12.5, 25 and 50 μM concentrations. The cell viability was assessed by MTS (3-(4,5-dimethylthiazolyl-2)-2,5-diphenyl-tetrazolium bromide) metabolic activity assay (CellTiter 96® AQueous Assay kit).

| SMILES | effect on transcriptional activity of Stat5a [1] | number of viable cells [2] |
| --- | --- | --- |
| OC[C@H]1O[C@@H](n2cnc3c(NCc4ccccc4)ncnc32)[C@H](O)[C@@H]1O [Compound N6BA, N^6-benzyladenosine] | inhibits transcriptional activity of Stat5 | decreased the number of viable prostate cancer cells |
| OC[C@H]1O[C@@H](n2cnc3c(NNc4ccccc4)ncnc32)[C@H](O)[C@@H]1O [Compound 2, (2R,3S,4R,5R)-2-(hydroxymethyl)-5-(6-(2-phenylhydrazinyl)-9H-purin-9-yl)tetrahydrofuran-3,4-diol] | effectively block the transcriptional activity of Stat5a | decreased the number of viable prostate cancer cells compared to the control compound |
| OC[C@H]1O[C@@H](n2ccc3c(NCc4ccccc4)ncnc32)[C@H](O)[C@@H]1O [NBPP, N-(phenylmethyl)-7-β-D-ribofuranosyl-7H-pyrrolo[2,3-d]pyrimidin-4-amine] |  | decreased the number of viable prostate cancer cells |
| OC[C@H]1O[C@@H](n2cnc3c(N4CCc5ccccc5C4)ncnc32)[C@H](O)[C@@H]1O [Compound 1, (2R,3R,4S,5R)-2-(6-(3,4-Dihydroisoquinolin-2(1H)-yl)-9H-purin-9-yl)-5-(hydroxymethyl)tetrahydrofuran-3,4-diol] | effectively block the transcriptional activity of Stat5a | decreased the number of viable prostate cancer cells compared to the control compound |
